{"source": "patent US12220437B2", "about": "“Oncolytic virus improved in safety and anticancer effect” (BIONOXX INC., priority 2017, dated 2025)", "key": {"NCI-H460 cells": {"tested_on": "NCI-H460 cells", "assay": "Annexin V/PI staining, flow cytometry (FACS)", "format": "cell-based, human", "description": "(§1) In addition, the apoptosis and necrosis according to the combined administration of OTS-412 and GCV were confirmed by flow cytometry (FACS). Specifically, A549 and NCI-H460 cell lines were treated with GCV alone, OTS-412 alone, or a combination of OTS-412 and GCV, respectively, and the cells were subjected to Annexin V/PI staining followed by flow cytometry. At this time, the viability of cell was determined based on the facts that: both Annexin V and PI are negative in living cells; Annexin V is positive in the early stage of apoptosis, wherein the permeability of cell membrane changes; and both Annexin V and PI are positive at the end of apoptosis, wherein the nucleus is exposed by destruction of the cell membrane."}, "A549 cells": {"tested_on": "A549 cells", "assay": "Annexin V/PI staining, flow cytometry (FACS)", "format": "cell-based, human", "description": "as §1"}}}
{"smiles": "Nc1nc2c(ncn2COC(CO)CO)c(=O)[nH]1", "note": "[GCV, ganciclovir]", "values": [{"measurement": "apoptosis rate", "setting": "NCI-H460 cells", "value": "not confirmed"}, {"measurement": "apoptosis rate", "setting": "A549 cells", "value": "not confirmed"}]}
